Reference: article PMC3504309 (ChemMedChem, 2011)

Tested on: human K562 cells
Test: Human K562 growth inhibition assay
Assay type: cell-based
Conditions: for Antiproliferative effect on growth of human K562 cells (in words): 333 μM was the highest concentration tested; for IC50: Homo sapiens, K562, 48 h, read-out: Growth inhibition of human K562 cells IC50

CO[C@@H](C(=O)NCC1CCCN(C(=O)C(C)C)C1)[C@H](O)[C@@H](O)[C@H](O)/C=C/C(C)(C)C (stereo partly drawn) [Compound 4, (2R,3R,4S,5R,E)-3,4,5-trihydroxy-N-((1-isobutyrylpiperidin-3-yl)methyl)-2-methoxy-8,8-dimethylnon-6-enamide]
Antiproliferative effect on growth of human K562 cells (in words): no or weak activity
IC50: > 333 µM

CO[C@@H](C(=O)NCC1CCCN(C(=O)C2CC2)C1)[C@H](O)[C@@H](O)[C@H](O)/C=C/C(C)(C)C (stereo partly drawn) [Compound 5, (2R,3R,4S,5R,E)-N-((1-(cyclopropanecarbonyl)piperidin-3-yl)methyl)-3,4,5-trihydroxy-2-methoxy-8,8-dimethylnon-6-enamide]
Antiproliferative effect on growth of human K562 cells (in words): no or weak activity
IC50: > 333 µM

CO[C@@H](C(=O)NCCC(c1ccccc1)c1ccco1)[C@H](O)[C@@H](O)[C@H](O)/C=C/C(C)(C)C (stereo partly drawn) [Compound 6, (2R,3R,4S,5R,E)-N-(3-(furan-2-yl)-3-phenylpropyl)-3,4,5-trihydroxy-2-methoxy-8,8-dimethylnon-6-enamide]
Antiproliferative effect on growth of human K562 cells (in words): low and reproducible activity
IC50: 79.6 µM

CO[C@@H](C(=O)NCCC(c1ccc(F)cc1)c1ccco1)[C@H](O)[C@@H](O)[C@H](O)/C=C/C(C)(C)C (stereo partly drawn) [Compound 7, (2R,3R,4S,5R,E)-N-(3-(4-fluorophenyl)-3-(furan-2-yl)propyl)-3,4,5-trihydroxy-2-methoxy-8,8-dimethylnon-6-enamide]
Antiproliferative effect on growth of human K562 cells (in words): low and reproducible activity
IC50: 96.5 µM

CO[C@@H](C(=O)NC1Cc2ccccc2C1)[C@H](O)[C@@H](O)[C@H](O)/C=C/C(C)(C)C [Compound 8, (2R,3R,4S,5R,E)-N-(2,3-dihydro-1H-inden-2-yl)-3,4,5-trihydroxy-2-methoxy-8,8-dimethylnon-6-enamide]
Antiproliferative effect on growth of human K562 cells (in words): no or weak activity
IC50: > 333 µM

CO[C@@H](C(=O)NCC(N)=O)[C@H](O)[C@@H](O)[C@H](O)/C=C/C(C)(C)C [Compound 9, (2R,3R,4S,5R,E)-N-(2-amino-2-oxoethyl)-3,4,5-trihydroxy-2-methoxy-8,8-dimethylnon-6-enamide]
Antiproliferative effect on growth of human K562 cells (in words): no or weak activity
IC50: > 333 µM

CO[C@@H](C(=O)NCCOc1c(C)cc(C)cc1C)[C@H](O)[C@@H](O)[C@H](O)/C=C/C(C)(C)C [Compound 10, (2R,3R,4S,5R,E)-3,4,5-trihydroxy-N-(2-(mesityloxy)ethyl)-2-methoxy-8,8-dimethylnon-6-enamide]
Antiproliferative effect on growth of human K562 cells (in words): low and reproducible activity
IC50: 37.8 µM
